PMC6930638, “The Masked Polar Group Incorporation (MPGI) Strategy in Drug Design: Effects of Nitrogen Substitutions on Combretastatin and Isocombretastatin Tubulin Inhibitors” (Molecules, 2019)
In brackets after ≈: the same amount, converted by molar mass. Like-named read-outs stand apart in the source and are kept apart here.

Key:
[1] = Aqueous solubility determination (shake flask, UV); assay type: physicochemical; settings: thermodynamic from solid, phosphate buffer pH 7.0, 48 h stirring, filtered, UV, read-out: Solub.
Method: One of the expected effects of introducing nitrogen substitutions on combretastatin and isocombretastatin analogues, is an increase in aqueous solubility. Solubility was spectrophotometrically determined in phosphate buffer at pH 7. UV absorbance of soluble compounds was measured after shaking and microfiltration. […] In addition, aqueous solubilities of the corresponding ammonium salts are over 1 mg/mL.
This great improvement is probably due to the symmetry reduction, combined with an increased polarity for 2g.
Compounds were stirred in a solution of phosphate buffer at pH 7.0 (1–2 mg of compound in 300 µL of buffer) during 48 h. After that, the samples were filtered over a […] filter to discard the insoluble residues. In order to determine the maximum wavelength of absorbance for each compound, a scan between 270 and 400 nm was performed. Once the wavelength was selected, a calibration line was performed and the concentration of the stirred and filtered samples was measured.

[2] = tested on: HeLa cervix epithelioid carcinoma; test: MTT cell antiproliferative assay, HeLa; assay type: cell-based; settings: Homo sapiens, 72 h
Method: (§1) The in vitro antiproliferative activity of the synthesized compounds was evaluated by a colorimetric reaction, using the MTT reagent. They were tested against three different human tumor cell lines: HeLa cervix epithelioid carcinoma, HT-29 colon adenocarcinoma, and MCF-7 breast adenocarcinoma. […] Moving the alkylamino substituent from a para to a meta position with respect to the bridge results in potency reduction, except for the phenstatin analogue 1f. However, the introduction of a nitrogen atom to form 2-dimethylaminopyridine derivatives entails a loss of activity, both for phenstatin analogues (1b, 2b), while for isocombretastatins, it only involves a 2–3 times potency decrease (3b). For combretastatins, it implies an improvement in the cytotoxicity values down to tenths of nanomolar (8b). […] On the other hand, the best 2-dimethylaminopyridine was combretastatin 8b. All ammonium salts derivatives were not cytotoxic at micromolar concentrations.
(§2) HeLa (human cervical carcinoma) and MCF-7 (human breast carcinoma) cell lines were cultured in Dulbecco’s Modified Eagles Medium (DMEM) supplemented with 2 mM L-glutamine (Lonza-Cambrex, Karlskoga, Sweden), 10% (v/v) heat inactivated fetal bovine serum (HIFBS) (Lonza-Cambrex) and 100 μg/mL streptomycin-100 IU/mL penicillin (Lonza-Cambrex) at 37 °C in humidified 95% air and 5% CO2. HT-29 (human colon carcinoma) cells were cultured at 37 °C in complete RPMI 1640 medium containing 2 mM L-glutamine, 10% (v/v) HIFBS and 100 μg/mL streptomycin-100 IU/mL penicillin in humidified 95% air and 5% CO2 atmosphere.
(§3) The effect of the different compounds on the proliferation of human cell lines was determined by using the MTT (3-[4,5-dimethylthiazol-2-yl]-2,5-diphenyltetrazolium bromide) reagent (MTT Thiazolyl Blue Tetrazolium Bromide, Sigma-Aldrich, St. Louis, MO, USA) dissolved in PBS 5 mg/mL. Cell viability was evaluated seeding 100 µL of cells in exponential growth phase with appropriate cell line concentration (1.5 × 10^4 HeLa and MCF-7 cells/mL and 3 × 10^4 HT-29 cells/mL) in complete medium in 96-well plates at 37 °C and 5% CO2. After 24 h incubation to allow cells to attach to the plates the ligands were added at different concentrations from 10^−5 to 10^−9 M. The effect on the proliferation was evaluated 72 h post-treatment by adding the MTT reagent (10 µL/well) to a final concentration of 0.5 mg/mL and the plate was further incubated for another 3 h. After this period, the supernatant was removed, the MTT violet crystals formed on the bottom of each well were dissolved in DMSO (100 µL/well) and subsequently, the absorbance of the color complex was read at 570 nm using a multi-well plate reader. Compounds were dissolved in dimethyl sulfoxide (DMSO) and the final solvent concentrations never exceeded 0.5% (v/v). The control wells included treated cells with 0.5% (v/v) DMSO and the positive control. Measurements were performed in triplicate, and each experiment was repeated three times. […] Nonlinear curves fitting the experimental data were carried out for each compound.

[3] = tested on: MCF-7 breast adenocarcinoma; test: MTT cell antiproliferative assay, MCF-7; assay type: cell-based; settings: Homo sapiens, MCF7, 72 h
Method: as §1, §2, §3

[4] = tested on: Bovine brain microtubule protein (MTP); test: Tubulin polymerization inhibition assay (turbidimetry); assay type: biochemical; settings: 1.5 mg/mL MTP; IC50 calculated only if more than 50% inhibition at 20 µM; read-out: TPI IC50
Method: Bovine brain microtubule protein (MTP) was isolated as previously described. Briefly, it was purified according to the modified Shelanski method by two cycles of temperature-dependent assembly/disassembly.
Tubulin polymerization was monitored using a Helios α spectrophotometer by measuring the increase in turbidity at 450 nm, caused by a shift from 4 °C to 37 °C, which allows the in vitro MTP self-disassembly and assembly respectively. […] Firstly, ligands at 20 µM concentration, were incubated with 1.5 mg/mL MTP at 20 °C for 30 min and subsequently cooled on ice for 10 min. Then, the experiment starts at 4 °C to establish the initial baseline. The assembly process was initiated by shifting of the temperature to 37 °C and the turbidity produced can be measured by an absorbance increase. After reaching a stable plateau, the temperature was switched back to 4 °C to return to the initial absorption values. The difference in amplitude between the stable plateau and the initial baseline of the curves was taken as the degree of tubulin polymerization for each experiment. […] All the measurements were carried out in at least two independent experiments using MTP from different isolation.

[5] = tested on: HeLa, HT-29 and MCF-7 human tumor cell lines; test: Antiproliferative activity over the three human tumor cell lines (MTT); assay type: cell-based; settings: Homo sapiens, read-out: Cytotoxicity range (range of antiproliferative IC50 values)
Method: as §1
The antiproliferative activity of the compounds against three human tumor cell lines of different origins (i.e., HeLa cervix epithelioid carcinoma, HT-29 colon adenocarcinoma and MCF-7 breast adenocarcinoma) was evaluated by the MTT method. […] This high success rate is the result of a combination of favorable scaffolds and substituents, and it is similar to those of previous reports on related series. […] We have previously observed the same trend for related compounds acting at the colchicine site of tubulin [10, 23]. For this pyridine series, we observed a different potency trend when we compare the 4-amino-3-pyridine and the 3-amino-4-pyridine derivatives. […] This different behavior is probably a reflection of their different shape, combined with the different geometries imposed by different bridges. We have previously shown that the potency ordering isocombretastatins similar to oximes higher than benzophenones could be explained by the higher conjugation of the ketones with the aromatic rings, which imposes a more planar disposition than those required for high affinity colchicine site binding. For the 3-amino-4-pyridine series, more planar structures are required in order to avoid the bumping of the amino substituents with tubulin out the plane of the aromatic ring, an effect which we have previously shown to impact the potency of 3-substituted indolecombretastatins and dimethylaminophenyl phenstatins. This different geometrical disposition of the amino substituents, and the different adaptability of their corresponding pockets in the two series, can also account for the preference of bulkier substituents at position 3, such as the pyrrolidine rather than the smaller dimethylamino. […] The opposite is observed for the 4-dimethylaminophenyl phenstatins 1a and 1b. […] The remarkable levels of solubility achieved for the quaternary ammonium salts came unfortunately at the expenses of biological activity.
The effect of the different compounds on the proliferation of human cell lines was determined by using the MTT (3-[4,5-dimethylthiazol-2-yl]-2,5-diphenyltetrazolium bromide) reagent (MTT Thiazolyl Blue Tetrazolium Bromide, Sigma-Aldrich, St. Louis, MO, USA) dissolved in PBS 5 mg/mL. Cell viability was evaluated seeding 100 µL of cells in exponential growth phase with appropriate cell line concentration (1.5 × 10^4 HeLa and MCF-7 cells/mL and 3 × 10^4 HT-29 cells/mL) in complete medium in 96-well plates at 37 °C and 5% CO2. After 24 h incubation to allow cells to attach to the plates the ligands were added at different concentrations from 10^−5 to 10^−9 M. The effect on the proliferation was evaluated 72 h post-treatment by adding the MTT reagent (10 µL/well) to a final concentration of 0.5 mg/mL and the plate was further incubated for another 3 h. […]

[6] = tested on: HT-29 colon adenocarcinoma; test: MTT cell antiproliferative assay, HT-29 (without or with verapamil); assay type: cell-based, human; settings: for IC50: Homo sapiens, HT-29, MTT, 72 h
Method: as §1
As observed in Table 1, there are no significant changes in the IC50 values for most compounds, except for combretastatins 8a and 8i.
Acquired resistance to antitumor drugs is one of the more important problems of chemotherapy, also affecting tubulin-targeting drugs. In order to ascertain the impact of multidrug resistance phenotypes on the action of the compounds, we have measured the cell proliferation inhibitory activity of HT-29 cells in the presence of verapamil, a known P-glycoprotein 1/multidrug resistance protein 1 (MDR1) inhibitor at a concentration of 10 µM, not affecting cell proliferation. […] Except for the combretastatin analogues 8a and 8i, the affected drugs are all pyridine drugs.
as §2, §3

[7] = phosphate buffer, pH 7, aqueous buffer
[8] = range over the cell lines, Table S1

| Compound | solubility at 48 h ([1]; aqueous buffer) | IC50 [2] | IC50 [3] | IC50 [4] | solubility at 48 h [1, 7] | IC50 [5, 8] | improvement of HT-29 IC50 after verapamil treatment ([6]; 10 µM verapamil) | IC50 [6] | IC50 [5] | IC50 ([5]; range over the cell lines, Table S1, heading: Cytotoxicity range) |
| --- | --- | --- | --- | --- | --- | --- | --- | --- | --- | --- |
| COc1cc(C(=NO)c2ccc([N+](C)(C)C)cc2)cc(OC)c1OC.[I-] [Compound 6a, 4-((Hydroxyimino)(3,4,5-trimethoxyphenyl)methyl)-N,N,N-trimethylbenzenaminium iodide] | 1500 µg/mL | > 1000 nM | > 1000 nM | > 20000 nM | – | – | – | – | – | – |
| COc1ccc(OC)c(C(=O)c2ccc([N+](C)(C)C)cc2)c1.[I-] [Compound 5e, 4-(2,5-Dimethoxybenzoyl)-N,N,N-trimethylbenzenaminium iodide] | – | > 1000 nM | > 1000 nM | > 20000 nM | > 5000 µg/mL | > 1000 nM | – | – | – | – |
| COc1ccc(C(=O)c2ccc([N+](C)(C)C)cc2)c(OC)c1OC.[I-] [Compound 5d, N,N,N-Trimethyl-4-(2,3,4-trimethoxybenzoyl)benzenaminium iodide] | – | > 1000 nM | > 1000 nM | > 20000 nM | 4400 µg/mL | > 1000 nM | – | – | – | – |
| COc1cc(C=Cc2ccc(N3CCCC3)cc2)cc(OC)c1OC [Compound 8i, 1-(4-(3,4,5-Trimethoxystyryl)phenyl)pyrrolidine] | – | 243 nM | 140 nM | – | – | – | > 2 fold | 430 nM | – | – |
| COc1cc(C(=O)c2ccc(N(C)C)nc2)cc(OC)c1OC [Compound 1b, (6-(Dimethylamino)pyridin-3-yl)(3,4,5-trimethoxyphenyl)methanone] | – | > 1000 nM | > 1000 nM | > 20000 nM | 10.5 µg/mL (≈ 33.2 µM) | > 1000 nM | – | – | – | – |
| C=C(c1ccc(N2CCCC2)nc1)c1cc(OC)c(OC)c(OC)c1 [Compound 3c, 2-(Pyrrolidin-1-yl)-5-(1-(3,4,5-trimethoxyphenyl)vinyl)pyridine] | – | 523 nM | – | > 20000 nM | – | 140 to 523 nM | – | 383 nM | – | – |
| C=C(c1ccc([N+](C)(C)C)cc1)c1cc(OC)c(OC)c(OC)c1.[I-] [Compound 7a, N,N,N-trimethyl-4-(1-(3,4,5-trimethoxyphenyl)vinyl)benzenaminium iodide] | 2500 µg/mL | > 1000 nM | > 1000 nM | > 20000 nM | – | – | – | – | > 1000 nM | – |
| COc1ccc(C(=NO)c2ccc(N(C)C)cc2)c(OC)c1OC [Compound 2d, (4-(Dimethylamino)phenyl)(2,3,4-trimethoxyphenyl)methanone oxime] | – | 373 nM | 277 nM | > 20000 nM | – | – | – | 320 nM | – | – |
| COc1cc(C=Cc2ccnc(N3CCCC3)c2)cc(OC)c1OC [Compound 8h, 2-(Pyrrolidin-1-yl)-4-(3,4,5-trimethoxystyryl)pyridine] | – | > 1000 nM | > 1000 nM | > 20000 nM | 65 µg/mL (≈ 191 µM) | > 1000 nM | – | – | – | – |
| C=C(c1cccc(N(C)C)c1)c1cc(OC)c(OC)c(OC)c1 [Compound 3f, N,N-Dimethyl-3-(1-(3,4,5-trimethoxyphenyl)vinyl)aniline] | 21 µg/mL (≈ 67 µM) | > 1000 nM | > 1000 nM | > 20000 nM | – | > 1000 nM | – | – | – | – |
| COc1cc(C(=NO)c2cccc(N(C)C)c2)cc(OC)c1OC [Compound 2f, (3-(Dimethylamino)phenyl)(3,4,5-trimethoxyphenyl)methanone oxime] | – | > 1000 nM | > 1000 nM | > 20000 nM | 153 µg/mL (≈ 463 µM) | – | – | – | – | – |
| COc1cc(C=Cc2ccc([N+](C)(C)C)nc2)cc(OC)c1OC.[I-] [Compound 9b, N,N,N-trimethyl-5-(3,4,5-trimethoxystyryl)pyridin-2-aminium iodide] | – | > 1000 nM | > 1000 nM | > 20000 nM | 679 µg/mL | – | – | – | – | – |
| C=C(c1ccc([N+](C)(C)C)cc1)c1ccc(OC)c(OC)c1OC.[I-] [Compound 7d, N,N,N-Trimethyl-4-(1-(2,3,4-trimethoxyphenyl)vinyl)benzenaminium iodide] | – | > 1000 nM | > 1000 nM | > 20000 nM | 1000 µg/mL | – | – | – | – | > 1000 nM |
